Test results from US10259843B2, “Cyclic tetrapeptide stereoisomers” (University of Kansas, priority 2014, dated 2019).
Entries after “also recorded” stand apart in the source; their conditions may differ. Non-standard residues stand in square brackets, D forms with d. Residues, ends and D or L forms follow the SMILES beside them.

Key:
formalin assay = type: in vivo, rodent; settings: 10 mg/kg oral, vs saline i.p.
Experimental: It entails the injection of a dilute solution of formalin into the surface of the rodent's hindpaw, followed by the scoring of stereotypical behaviors such as flinching, licking, and biting of the affected hindpaw. The behaviors last for approximately 1 hour, with the early or acute stage (directly after injection) reflecting direct activation of nociceptors and the late or tonic phase (15 to 20 minutes after the injection) reflecting inflammation.

mu opioid receptor (MOR) = mu opioid receptor (MOR) (Homo sapiens, UniProt P35372); assay: radioligand binding assay, mu opioid receptor affinity; settings: n in parentheses; read-out: Ki (nM ± SEM) MOR
Experimental: (§1) The peptides of Table 1 shown below in Tables 3 and 4 were evaluated in radioligand binding assays for mu, kappa and delta opioid receptor affinities in vitro, and in the mouse 55° C. warm water tail withdrawal assay in vivo for antinociception and opioid antagonist activity.

acute tolerance model = settings: in vivo
[1] = other pain models (formalin, acetic acid stretching, nerve constriction; FIGS. 1-3B); settings: in vivo
Excerpt: These models are based on the formalin assay, the acetic acid stretching assay, and the nerve constriction assay. The formalin and acetic acid stretching assays are indicative of activity against inflammatory pain (i.e., nociceptive pain) and the nerve constriction assay is indicative of activity against neuropathic pain.

[2] = acetic acid stretching assay; type: in vivo; settings: 10 mg/kg and 30 mg/kg
Experimental: The acetic acid stretching assay is a model for visceral pain and is the most popular chemical assay of nociception. In the assay, subjects are given a subcutaneous (s.c.) injection of drug or vehicle 60 min before an intraperitoneal (i.p.) injection of 0.6% acetic acid. After administration of the acetic acid, the subjects are placed in clear cages (11×7×5 in) and scored for abdominal stretches during a 20 min observation period. Stretching was defined as body contortions, belly pressing, and extension of the hind limbs from which visceral nociception was inferred. […] And while the effect of 3607 was not as pronounced as with morphine, the observed reductions in stretching were significant, indication that 3607 has a significant pain reduction effect.

[3] = molecular target: delta opioid receptor (DOR) (Homo sapiens, UniProt P41143); assay: radioligand binding assay, delta opioid receptor affinity; settings: n in parentheses; read-out: Ki (nM ± SEM) DOR
Experimental: as §1

respiratory depression = type: in vivo; parameters: key: ✓ indicates tested (if no other comment then no significant effect)
locomotion (CLAMS) = type: in vivo; parameters: key: ✓ indicates tested (if no other comment then no significant effect); settings: 10 mg/kg, p.o.
[4] = nerve constriction assay for neuropathic pain; type: in vivo, rodent; settings: 3 mg/kg, 10 mg/kg, and 30 mg/kg; compared to 50 mg/kg gabapentin
Experimental: In the nerve constriction assay, a nerve of a subject rodent is chronically constricted or cuffed and then the animal is assessed for response to pain stimuli such a paw withdrawal. […] Gabapentin is an accepted treatment for neuropathic pain.

[5] = molecular target: kappa opioid receptor (KOR) (Homo sapiens, UniProt P41145); assay: radioligand binding assay, kappa opioid receptor affinity; settings: n in parentheses; read-out: Ki (nM ± SEM) KOR
Experimental: as §1

[6] = mouse 55° C. warm water tail withdrawal assay, antinociception; type: in vivo; settings: for ED50 (95% CI) i.c.v. / ED50 (95% CI) p.o.: antinociception; for Receptors involved: opioid receptors contributing to antinociception
Experimental: as §1

[7] = conditioned place response assay; settings: oral administration of the peptides
[8] = rotorod test for sedation and motor coordination; type: in vivo; parameters: key: ✓ indicates tested (if no other comment then no significant effect); settings: 10 mg/kg, p.o.
[9] = tested on: opioid receptors (KOR, MOR, DOR); assay: mouse 55° C. warm water tail withdrawal assay, opioid antagonist activity; type: in vivo; settings: for Antagonism (dose, nmol): 30 nmol
Experimental: as §1

[10] = stress-induced reinstatement of cocaine seeking behavior, conditioned place preference assay; settings: in vivo
Excerpt: In interesting comparison to the other cyclic tetrapeptides, compound 3613 (DDDD) is a mu opioid receptor (MOR) agonist and delta opioid receptor (DOR) antagonist. MOR agonists/DOR antagonists are of great interest because of their decreased liability profile (decreased addiction potential and liability profile such as tolerance) compared to MOR agonists like morphine.

Sequence of delta opioid receptor (DOR) (P41143 whole entry): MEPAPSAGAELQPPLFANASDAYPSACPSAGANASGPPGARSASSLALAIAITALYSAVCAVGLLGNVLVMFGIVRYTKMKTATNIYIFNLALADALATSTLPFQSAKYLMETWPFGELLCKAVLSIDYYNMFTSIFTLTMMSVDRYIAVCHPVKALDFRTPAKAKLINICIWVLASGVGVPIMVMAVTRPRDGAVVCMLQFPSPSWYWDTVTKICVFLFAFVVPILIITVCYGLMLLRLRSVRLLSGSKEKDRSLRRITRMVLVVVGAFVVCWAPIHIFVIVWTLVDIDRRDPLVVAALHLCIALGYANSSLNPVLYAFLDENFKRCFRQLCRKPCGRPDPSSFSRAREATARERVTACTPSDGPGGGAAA
Sequence of mu opioid receptor (MOR) (P35372 whole entry): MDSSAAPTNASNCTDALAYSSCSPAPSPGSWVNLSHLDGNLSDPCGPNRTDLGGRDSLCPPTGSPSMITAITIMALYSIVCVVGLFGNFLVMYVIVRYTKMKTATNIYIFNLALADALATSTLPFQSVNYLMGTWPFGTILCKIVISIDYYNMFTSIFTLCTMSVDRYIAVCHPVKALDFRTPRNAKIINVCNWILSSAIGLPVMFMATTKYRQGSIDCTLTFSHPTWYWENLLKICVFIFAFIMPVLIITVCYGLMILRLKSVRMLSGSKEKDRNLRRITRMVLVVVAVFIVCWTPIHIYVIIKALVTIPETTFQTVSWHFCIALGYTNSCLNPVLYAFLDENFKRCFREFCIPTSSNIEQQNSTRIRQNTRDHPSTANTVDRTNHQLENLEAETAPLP
Sequence of kappa opioid receptor (KOR) (P41145 whole entry): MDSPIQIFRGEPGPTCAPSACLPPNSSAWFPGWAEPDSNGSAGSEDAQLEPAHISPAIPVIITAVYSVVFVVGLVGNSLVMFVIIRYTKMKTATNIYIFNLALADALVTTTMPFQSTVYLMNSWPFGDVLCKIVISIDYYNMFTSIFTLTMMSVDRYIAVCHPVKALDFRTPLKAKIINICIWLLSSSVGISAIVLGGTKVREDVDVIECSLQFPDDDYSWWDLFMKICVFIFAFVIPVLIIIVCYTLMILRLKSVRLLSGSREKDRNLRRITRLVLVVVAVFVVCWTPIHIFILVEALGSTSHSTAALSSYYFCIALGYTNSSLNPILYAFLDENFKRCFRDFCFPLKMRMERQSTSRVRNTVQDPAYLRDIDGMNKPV

In the case of `O=C1N[C@H](Cc2ccccc2)C(=O)N2CCC[C@@H]2C(=O)N[C@H](Cc2ccccc2)C(=O)N[C@H]1Cc1c[nH]c2ccccc12` [JVA 3607, cyclo-[D-Phe-D-Pro-D-Phe-Trp]] (cyclo([dF][dP][dF]W)), the “time spent licking after formalin administration” value (formalin assay) is reported as “significant reduction”, the Ki (mu opioid receptor (MOR)) is reported as 7780 ± 410 nM and the “Acute Tolerance ED50 shift” value (acute tolerance model) is reported as 5.19 fold. For the same compound, the “analgesic activity in other pain models” value [1] was “significant analgesic properties; also recorded: show activity against pain”, the “antinociception (abdominal stretches)” value [2] was “significant antinociception” and the Ki [3] was > 10000 nM. The “Respiratory depression 10 mg/kg p.o.” value (respiratory depression) was “✓”, the “Locomotion (CLAMS, 10 mg/kg, p.o.)” value (locomotion (CLAMS)) was “✓” and the “relief of neuropathic pain” value [4] was “significant relief of neuropathic pain”. The Ki [5] was 2560 ± 480 nM, the “ED50 (95% CI) i.c.v.” value [6] was 1.00 nmol and the “ED50 (95% CI) p.o.” value [6] was 4.12 mg/kg. For the same compound, the Receptors involved [6] was “mu opioid receptors (MOR) are not involved; also recorded: KOR, DOR”, the “conditioned place preference (drug seeking behavior) or conditioned place aversion” value [7] was “no evidence of inducing drug seeking behavior; also recorded: do not show evidence of conditioned place preference (drug seeking behavior) or conditioned place aversion” and the “Rotorod (10 mg/kg, p.o.)” value [8] was “✓”. For the same compound, the “Antagonism (dose, nmol)” value [9] was “None (30)”.

With `O=C1N[C@H](Cc2ccccc2)C(=O)N[C@H](Cc2c[nH]c3ccccc23)C(=O)N[C@H](Cc2ccccc2)C(=O)N2CCC[C@H]12` [JVA 3613, cyclo[D-Phe-D-Pro-D-Phe-D-Trp]] (cyclo([dF][dP][dF][dW])) the Ki (mu opioid receptor (MOR)) was > 10000 nM, the Ki [3] was > 10000 nM and the “Respiratory depression 10 mg/kg p.o.” value (respiratory depression) was “✓”. The “Locomotion (CLAMS, 10 mg/kg, p.o.)” value (locomotion (CLAMS)) was “✓”, the Ki [5] was 2010 ± 270 nM and the “ED50 (95% CI) i.c.v.” value [6] was 0.51 nmol. The “ED50 (95% CI) p.o.” value [6] was 2.47 mg/kg, the Receptors involved [6] was “kappa opioid receptors (KOR) are not involved; also recorded: DOR, MOR” and the “prevention of stress-induced reinstatement of cocaine seeking behavior” value [10] was “effective in preventing stress-induced reinstatement of cocaine seeking behavior”. The “Rotorod (10 mg/kg, p.o.)” value [8] was “✓”, the “Antagonism (dose, nmol)” value [9] was “DOR (30)” and the “Antagonism (opioid receptor antagonised in vivo)” value ([9]; dose not given) was “exhibit DOR antagonist activity”.
